# Columns and labels:
# Type in all cases: in vivo
# [1] = test system: Sphaerotheca fuliginea; assay: Test Example 1: curative effect against cucumber powdery mildew with different temperatures; settings: pyriofenone 90 g ai/ha, no component (b)
# Experimental: (§1) Cucumber (cultivar: Sagamihanjiro Fushinari) was cultivated in a polyethylene pot having a diameter of 7.5 cm, and when the cucumber reached 1.5 leaf stage, the leaf adaxial surface was sprayed and inoculated with a suspension of conidia of Sphaerotheca fuliginea, the cucumber was cultivated in a room at 20° C. or 28° C. under the light for 3 days, and a chemical solution containing pyriofenone was applied (dosage: 90 g ai/ha, amount of solution applied: 800 L/ha) to the leaf adaxial surface by a spray gun. After the chemical solution dried, the cucumber was cultivated in a room at 20° C. or 28° C. under the light for 6 days. The lesion area ratio on the adaxial surface of the first leaf was examined, and the control value was calculated based on the following formula. Control value=(1−a/b)×100
# (§2) a: lesion area ratio in treated plot, b: lesion area ratio in non-treated plot
# [2] = test system: Sphaerotheca fuliginea; assay: Test Example 2: curative effect against cucumber powdery mildew; settings: pyriofenone 90 g ai/ha, no addition
# Experimental: Cucumber (cultivar: Sagamihanjiro Fushinari) was cultivated in a polyethylene pot having a diameter of 7.5 cm, and when the cucumber reached 1.5 leaf stage, the leaf adaxial surface was sprayed and inoculated with a suspension of conidia of Sphaerotheca fuliginea, the cucumber was cultivated in a room at 20° C. under the light for 3 days, and a chemical solution containing pyriofenone prepared with an aqueous solution containing each product (0.5 v/v°/0) was applied (dosage: 90 g ai/ha, amount of solution applied: 800 L/ha) to the leaf adaxial surface by a spray gun. After the chemical solution dried, the cucumber was cultivated in a room at 20° C. under the light for 6 days. The lesion area ratio on the adaxial surface of the first leaf was examined, and the control value was calculated based on the following formula. In Tables, “no addition” means the above treatment without adding the component (b) (the same applies hereinafter). Control value=(1−a/b)×100
# as §2
# [3] = test system: Sphaerotheca fuliginea; assay: Test Example 3: curative effect against cucumber powdery mildew; settings: pyriofenone 90 g ai/ha, no addition
# Experimental: as §1, with “C.” for “C. or 28° C.”, “pyriofenone prepared with an aqueous solution containing each product (0.05 to 0.25 v/v°/0)” for “pyriofenone”, “on” for “on the adaxial surface of”
# as §2
# [4] = test system: Sphaerotheca fuliginea; assay: Test Example 4: curative effect against cucumber powdery mildew; settings: pyriofenone 90 g ai/ha, no addition
# Experimental: (§3) Cucumber (cultivar: Sagamihanjiro Fushinari) was cultivated in a polyethylene pot having a diameter of 7.5 cm, and when the cucumber reached 1.5 leaf stage, the leaf adaxial surface was sprayed and inoculated with a suspension of conidia of Sphaerotheca fuliginea, the cucumber was cultivated in a room at 20° C. under the light to for 3 days, and a chemical solution containing pyriofenone prepared with an aqueous solution containing each product (0.025 to 0.25 v/v°/0) was applied (dosage: 90 g ai/ha, amount of solution applied: 800 L/ha) to the leaf adaxial surface by a spray gun. After the chemical solution dried, the cucumber was cultivated in a greenhouse for 4 days and then cultivated in a room at 20° C. under the light for 5 days. The lesion area ratio on the first leaf was examined, and the control value was calculated based on the following formula. Control value=(1−a/b)×100
# as §2
# [5] = test system: Sphaerotheca fuliginea; assay: Test Example 5: curative effect against cucumber powdery mildew; settings: no addition
# Experimental: as §3, with “light” for “light to”, “pyriofenone (dosage: 90 g ai/ha) or metrafenone (300 g ai/ha)” for “pyriofenone”, “to 4.0” for “to 0.25”, “applied (amount” for “applied (dosage: 90 g ai/ha, amount”, “a” for “a greenhouse for 4 days and then cultivated in a”, “for 7” for “for 5”
# as §2
# [6] = test system: Sphaerotheca fuliginea; assay: Test Example 6: curative effect against cucumber powdery mildew; settings: no addition
# Experimental: as §1, with “C.” for “C. or 28° C.”, “pyriofenone” for “pyriofenone was applied”, “ai/ha) or metrafenone (300 g ai/ha) prepared with an aqueous solution containing each product (0.01 to 5.0 v/v°/0) was applied (amount” for “ai/ha, amount”, “on” for “on the adaxial surface of”
# as §2
# [7] = test system: Sphaerotheca fuliginea; assay: Test Example 7: curative effect against cucumber powdery mildew; settings: no addition
# Experimental: as §3, with “light” for “light to”, “pyriofenone (dosage: 90 g ai/ha) or metrafenone (300 g ai/ha)” for “pyriofenone”, “(0.02” for “(0.025”, “0.07” for “0.25”, “(amount” for “(dosage: 90 g ai/ha, amount”, “was” for “was cultivated in a greenhouse for 4 days and then”
# as §2
# [8] = test system: Sphaerotheca fuliginea; assay: Test Example 8: curative effect against cucumber powdery mildew; settings: no addition
# Experimental: (§4) Cucumber (cultivar: Sagamihanjiro Fushinari) was cultivated in a polyethylene pot having a diameter of 7.5 cm, and when the cucumber reached 1.5 leaf stage, the leaf adaxial surface was sprayed and inoculated with a suspension of conidia of Sphaerotheca fuliginea, the cucumber was cultivated in a room at 20° C. under the light for 3 days, and a chemical solution containing pyriofenone (dosage: 90 g ai/ha) or metrafenone (300 g ai/ha) prepared with an aqueous solution containing each product (0.001 to 5.0 v/v°/0) was applied (amount of solution applied: 800 L/ha) to the leaf adaxial surface by a spray gun. After the chemical solution dried, the cucumber was cultivated in a room at 20° C. under the light for 7 days. The lesion area ratio on the first leaf was examined, and the control value was calculated based on the following formula. Control value=(1−a/b)×100
# as §2
# [9] = test system: Sphaerotheca fuliginea; assay: Test Example 9: curative effect against cucumber powdery mildew; settings: no addition
# Experimental: as §4, with “(0.005” for “(0.001”, “1.0” for “5.0”
# as §2
# [10] = test system: Sphaerotheca fuliginea; assay: Test Example 10: penetration effect against cucumber powdery mildew; settings: pyriofenone 90 g ai/ha, no addition
# Experimental: (§5) Cucumber (cultivar: Sagamihanjiro Fushinari) was cultivated in a polyethylene pot having a diameter of 7.5 cm, and when the cucumber reached 1.5 leaf stage, a chemical solution containing pyriofenone (dosage: 90 g ai/ha) prepared with an aqueous solution containing each product (0.015 to 4.0 v/v %) was applied (amount of solution applied: 800 L/ha) to the leaf adaxial surface by a spray gun. After the chemical solution dried, the cucumber was cultivated in a room at 20° C. under the light for 4 days, the leaf abaxial surface was sprayed and inoculated with a suspension of conidia of Sphaerotheca fuliginea, and the cucumber was cultivated in a room at 20° C. under the light for 8 days. The lesion area ratio on the abaxial side of the first leaf was examined, and the control value was calculated based on the following formula. Control value=(1−a/b)×100
# as §2
# [11] = test system: Oidiopsis sicula Scalia; assay: Test Example 11: curative effect against sweet pepper powdery mildew; settings: no addition
# Source text: Sweet pepper (cultivar: Kyonami) was cultivated in a polyethylene pot having a diameter of 7.5 cm, and when the sweet pepper reached 8.5 leaf stage, the sweet pepper was dusted and inoculated with a suspension of conidia of Oidiopsis sicula Scalia, the sweet pepper was cultivated in a greenhouse under the light for 3 days, and a chemical solution containing pyriofenone (dosage: 90 g or 110 g ai/ha) prepared with an aqueous solution containing each product (0.07 to 4.0 v/v %) was applied (amount of solution applied: 600 L/ha) to the leaf adaxial surface by a spray gun. After the chemical solution dried, the cucumber was cultivated in a greenhouse under the light for 17 days. Each of eight lower leaves was investigated, and the disease severity was calculated in accordance with the following index. Further, the control value was calculated from the disease severity.
# Disease index 0: No spore formation
# Disease index 1: Formation of lesion (spores, foot cells, conidiogenous cells) is observed on the leaf abaxial side with an area of less than 10%.
# Disease index 2: Formation of lesion (spores, foot cells, conidiogenous cells) is observed on the leaf abaxial side with an area of from 10% to 25%.
# Disease index 3: Formation of lesion (spores, foot cells, conidiogenous cells) is observed on the leaf abaxial side with an area of from 26% to 50%. […]
# [12] = test system: Sphaerotheca fuliginea; assay: Test Example 12: curative effect against cucumber powdery mildew; settings: pyriofenone 90 g ai/ha, no addition
# Experimental: as §5, with “stage, the leaf adaxial surface was sprayed and inoculated with a suspension of conidia of Sphaerotheca fuliginea, the cucumber was cultivated in a room at 20° C. under the light for 4 days, and” for “stage,”, “0.5” for “4.0”, “6” for “4 days, the leaf abaxial surface was sprayed and inoculated with a suspension of conidia of Sphaerotheca fuliginea, and the cucumber was cultivated in a room at 20° C. under the light for 8”, “on” for “on the abaxial side of”
# as §2
# [13] = test system: Sphaerotheca fuliginea; assay: Test Example 13: penetration effect against cucumber powdery mildew; settings: pyriofenone 90 g ai/ha, no addition
# Experimental: Cucumber (cultivar: Sagamihanjiro Fushinari) was cultivated in a polyethylene pot having a diameter of 7.5 cm, and when the cucumber reached 1.5 leaf stage, a chemical solution containing pyriofenone (dosage: 90 g ai/ha) prepared with an aqueous solution containing each product (0.015 to 1.0 v/v°/0) was applied (amount of solution applied: 800 L/ha) to the leaf adaxial surface by a spray gun. After the chemical solution dried, the cucumber was cultivated in a room at 20° C. under the light for 3 days, the leaf abaxial surface was sprayed and inoculated with a suspension of conidia of Sphaerotheca fuliginea, and the cucumber was cultivated in a room at 20° C. under the light for 7 days. The lesion area ratio on the abaxial side of the first leaf was examined, and the control value was calculated based on the following formula. Control value=(1−a/b)×100
# as §2
smiles,measurement,setting,value
"COc1cc(C)c(C(=O)c2c(OC)ncc(Cl)c2C)c(OC)c1OC [Pyriofenone, pyriofenone]",Control value,[1]; 20° C.,53
same,Control value,[1]; 28° C.,80
same,Control value,[2],55
same,Control value,[3],55
same,Control value,[4],30
same,Control value Pyriofenone,[5]; pyriofenone 90 g ai/ha,63
same,Control value Pyriofenone,[6]; pyriofenone 90 g ai/ha,71.6
same,Control value Pyriofenone,[7]; pyriofenone 90 g ai/ha,65
same,Control value Pyriofenone,[8]; pyriofenone 90 g ai/ha,65
same,Control value Pyriofenone,[9]; pyriofenone 90 g ai/ha,70
same,Control value,[10],12
same,Control value Dosage (g ai/ha) 90,[11]; pyriofenone 90 g ai/ha,7.6
same,Control value Dosage (g ai/ha) 110,[11]; pyriofenone 110 g ai/ha,6.1
same,Control value,[12],68
same,Control value,[13],40
"COc1cc(C)c(C(=O)c2c(OC)ccc(Br)c2C)c(OC)c1OC [Metrafenone, metrafenone]",Control value Metrafenone,[5]; metrafenone 300 g ai/ha,65.7
same,Control value Metrafenone,[6]; metrafenone 300 g ai/ha,60.2
same,Control value Metrafenone,[7]; metrafenone 300 g ai/ha,65
same,Control value Metrafenone,[8]; metrafenone 300 g ai/ha,60
same,Control value Metrafenone,[9]; metrafenone 300 g ai/ha,75

# Reference: patent US11950592B2, “Method for enhancing plant disease controlling effects of aryl phenyl ketone fungicide, and method for controlling plant diseases” (ISHIHARA SANGYO KAISHA, LTD., priority 2016, dated 2024)
